Read-outs that look alike come from different tables or passages of the source.
Key:
[1] = test system: acetylcholine-induced bronchospasm; assay: Acetylcholine-induced bronchospasm in anaesthetised, spontaneously breathing guinea pigs, intravenous administration; format: in vivo, guinea pig (Pirbright White); conditions: for Mean bronchospasmolytic activity, percentage increase of Vmaxe vs control spasm / Mean bronchospasmolytic activity, percentage increase of tidal volume (TV) vs control spasm: 0-60 min; for Mean bronchospasmolytic activity, percentage increase of Vmaxe vs control spasm / Mean bronchospasmolytic activity, percentage increase of tidal volume (TV) vs control spasm / Bronchospasmolytic activity, percentage increase of Vmaxe vs control spasm / Bronchospasmolytic activity, percentage increase of tidal volume (TV) vs control spasm: x±SEM, N=10; for ED50: Cavia porcellus, iv, 1 h, mean activity 0-60 min; for Bronchospasmolytic activity, percentage increase of Vmaxe vs control spasm / Bronchospasmolytic activity, percentage increase of tidal volume (TV) vs control spasm: at 60 min
Description: Effect of Intravenously Administered Telenzepine on Acetylchline-Induced Bronchospasms in Anaesthetised, Spontaneously Breathing Guinea Pigs
Method for simultaneously recording pharmacodynamic or toxic effects on interior sensitive receptors and the respiration of guinea pigs (U. Kilian, E. Muller, E. Ch. Dittmann and J. Hamacher, Arzneim.-Forsch. 28, 1699-1708, 1978).
Pirbright White, Interfauna (Tuttlingen), 350-450 g, male.
Ethylurethane 1.2 g/kg i.p. as 12.5% aqueous solution.
Pneumotachogram: Maximum flow velocities of the respiratory air during expiration (Vmaxe, "peak flow"), tidal volume (TV).
Acetylcholine as spasmogen, 0.2-0.3 μmol/kg i.v., dissolved in 0.9% NaCl.
-10 min control spasm, 0 min administration of substance, +2, +10, +20, +30, +60 min test spasms.
Determination of the effect of telenzepine on the parameters (mean and standard error of mean, n=10) and calculation of the bronchospasmolytic activity from this as percentage inhibition of the acetylcholine-induced decrease of Vmaxe and TV by means of time/effect curves. Computation of a dose/response curve of the mean bronchospasmolytic activity during the observation time (0-60 min) from the areas under the time/effect curves and reading of 1 h ED50 values. Determination of a dose/response curve of the bronchospasmolytic activity at time 60 min and reading ED50 values.

M1 receptor (ganglionic) = assay: Receptor affinity, electrically stimulated rabbit vas deferens in organ bath; conditions: vas deferens of the rabbit, agonist McN-A-343, Schild slope normalised to 1.00
Description: Isometric contractions (HSE force transducer, K-30; tilt and zones, BD-9 chart recorder) of isolated seminal duct sections of rabbits (male, white New Zealand rabbits, 2.5-3.5 kg) were recorded in an organ bath (10 ml, 31° C., gassing with carbogen, initial tension of the organs 0.75 g) under electrical stimultion (HSE stimulator; hook-shaped Pt electrode 1 cm below the water surface of the bath; 30 V, 0.5 ms, 0.05 Hz). After an equilibration time of 30 minutes, cumulative dose/response curves of McN-A-343 (10^-7 -2×10^-6 M) were recorded simultaneously on 8 organ sections in each case (control curves), using the technique described by van Rossum (1963). After 3 control curves, a fixed concentration of the agonist (for example 5×10^-7, 10^-6, 3×10^-6, 10^-5 or 3×10^-5 M) per organ section was applied and, after stabilisation of the effect, increasing concentrations of the agonist to be tested were added. The nutrient solution used had the following composition (mM): NaCl 118, KCl 4.7, CaCl2 ·2H2 O 2.5, MgSO4 ·7H2 O 0.6, KH2 PO 4 1.2, NaHCO3 25.0 and glucose 11.1. In order to block α2 -adrenoreceptors, the nutrient solution additionally contained 10^-6 M yohimbine.

M2 receptor (cardiac) = target: T1, M2 receptor (cardiac) (Rattus norvegicus, UniProt P10980); assay: Receptor affinity, electrically stimulated left atrium of the rat; conditions: agonist carbachol, Schild slope normalised to 1.00, read-out: pA2 ± SEM, M2 receptor (cardiac) (converted)
T1 construct: isolated, left atria of rats (male 250-350 g); from tissue; host or cells: rat left atrium (isolated, male rats 250-350 g)
T1 sequence (P10980 1-466): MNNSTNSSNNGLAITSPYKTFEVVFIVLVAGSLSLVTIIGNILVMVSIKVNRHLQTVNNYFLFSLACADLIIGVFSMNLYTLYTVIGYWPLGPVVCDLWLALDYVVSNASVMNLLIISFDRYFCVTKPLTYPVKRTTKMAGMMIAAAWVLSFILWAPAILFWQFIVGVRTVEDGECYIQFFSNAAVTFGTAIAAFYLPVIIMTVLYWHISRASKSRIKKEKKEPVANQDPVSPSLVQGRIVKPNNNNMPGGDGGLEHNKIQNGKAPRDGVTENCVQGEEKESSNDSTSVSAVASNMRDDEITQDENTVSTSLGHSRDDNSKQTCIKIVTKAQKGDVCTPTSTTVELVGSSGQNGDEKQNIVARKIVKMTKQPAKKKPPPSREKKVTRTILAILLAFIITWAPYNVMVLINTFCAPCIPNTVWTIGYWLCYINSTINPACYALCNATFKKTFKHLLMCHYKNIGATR
Description: The affinity of (±)-4,9-dihydro-3-methyl-4-[(4-methyl-1-piperazinyl)-acetyl]-10H-thieno[3,4-b][1,5]benzodiazepin-10-one (telenzepine, compound 2 in Table 7) and its conformers [(+)-enantiomer=compound 1, (-)-enantiomer=compound 3] to muscarinic M1 (ganglionic type) and M2 (cardiac type) receptors was investigated by the following methods:
Electrically Stimulated Left Atrium of the Rat (Eltze et al., 1985, Europ. J. Pharmacol. 112, 211-224).
Isometric contractions (HSE force transducer, K-30; Watanabe Linear Corder Mark 5) of isolated, left atria of rats (male 250-350 g) were recorded in an organ bath (10 ml, Tyrode nutrient solution, 31° C., gassing with carbogen, initial tension of the organs 0.25 g) under electrical stimulation (HSE stimulator; hook-shaped Pt electrodes at the base of the bath and immersed, annular Pt electrodes 1 cm below the water surface of the bath; 7 V, 3 ms, 2 Hz). After an equilibration time of 30 minutes, cumulative dose/response curves of carbachol (10^-8 -10^-6 M, in the presence of the antagonist also up to 10^-5 or 10^-4 M) were recorded simultaneously on 4 organs in each case by the technique described by van Rossum (1963). The substance to be tested was added to the organ baths 20 minutes before application of the carbachol. The pauses between the individual dose/response curves were 30-45 minutes.
The Tyrode nutrient solution used had the following composition (mM): NaCl 130, KCl 2.0, CaCl2 ·2H2 O 1.8, MgCl2 ·6H2 O 0.98, NaHCO3 12.0, NaH2 PO4 0.42 and glucose monohydrate 5.6. pA2 values (-log of the molar dissociation constants of the competitive antagonist-receptor complex) were determined by linear regression using the Schild plot: pA2 =-log [B/(x-1)], (Arunlakshana and Schild, 1959).
Table 7 below gives pA2 values of the substances, for which the slope of the regression lines for theoretically competitive antagonism have been normalised to 1.00 (Tallarida et al., 1979).

With `Cc1scc2c1N(C(=O)CN1CCN(C)CC1)c1ccccc1NC2=O` (racemic) [(±)-telenzepine, 4,9-dihydro-3-methyl-4-[(4-methyl-1-piperazinyl)-acetyl]-10H-thieno[3,4-b][1,5]benzodiazepin-10-one] the “Mean bronchospasmolytic activity, percentage increase of Vmaxe vs control spasm” value ([1]; 0.03 μmol/kg i.v.) was 7 ± 3%, the “Mean bronchospasmolytic activity, percentage increase of tidal volume (TV) vs control spasm” value ([1]; 0.03 μmol/kg i.v.) was 7 ± 3% and the “Mean bronchospasmolytic activity, percentage increase of Vmaxe vs control spasm” value ([1]; 0.05 μmol/kg i.v.) was 22 ± 3%. The “Mean bronchospasmolytic activity, percentage increase of tidal volume (TV) vs control spasm” value ([1]; 0.05 μmol/kg i.v.) was 26 ± 4%, the “Mean bronchospasmolytic activity, percentage increase of Vmaxe vs control spasm” value ([1]; 0.1 μmol/kg i.v.) was 61 ± 8% and the “Mean bronchospasmolytic activity, percentage increase of tidal volume (TV) vs control spasm” value ([1]; 0.1 μmol/kg i.v.) was 68 ± 9%. For the same molecule, the “Mean bronchospasmolytic activity, percentage increase of Vmaxe vs control spasm” value ([1]; 1 μmol/kg i.v.) was 81 ± 4%, the “Mean bronchospasmolytic activity, percentage increase of tidal volume (TV) vs control spasm” value ([1]; 1 μmol/kg i.v.) was 84 ± 4% and the “Mean bronchospasmolytic activity, percentage increase of Vmaxe vs control spasm” value ([1]; 5 μmol/kg i.v.) was 75 ± 3%. For the same molecule, the “Mean bronchospasmolytic activity, percentage increase of tidal volume (TV) vs control spasm” value ([1]; 5 μmol/kg i.v.) was 86 ± 2%, the ED50 ([1]; read-out: ED50 of mean bronchospasmolytic activity, TV) was 0.07 µmol/kg and the ED50 ([1]; read-out: ED50 of mean bronchospasmolytic activity, Vmaxe) was 0.08 µmol/kg. For the same molecule, the “Bronchospasmolytic activity, percentage increase of Vmaxe vs control spasm” value ([1]; 0.03 μmol/kg i.v.) was 11 ± 4%, the “Bronchospasmolytic activity, percentage increase of tidal volume (TV) vs control spasm” value ([1]; 0.03 μmol/kg i.v.) was 12 ± 6% and the “Bronchospasmolytic activity, percentage increase of Vmaxe vs control spasm” value ([1]; 0.05 μmol/kg i.v.) was 25 ± 3%. For the same molecule, the “Bronchospasmolytic activity, percentage increase of tidal volume (TV) vs control spasm” value ([1]; 0.05 μmol/kg i.v.) was 32 ± 5%, the “Bronchospasmolytic activity, percentage increase of Vmaxe vs control spasm” value ([1]; 0.1 μmol/kg i.v.) was 70 ± 9% and the “Bronchospasmolytic activity, percentage increase of tidal volume (TV) vs control spasm” value ([1]; 0.1 μmol/kg i.v.) was 78 ± 11%. For the same molecule, the “Bronchospasmolytic activity, percentage increase of Vmaxe vs control spasm” value ([1]; 1 μmol/kg i.v.) was 82 ± 5%, the “Bronchospasmolytic activity, percentage increase of tidal volume (TV) vs control spasm” value ([1]; 1 μmol/kg i.v.) was 85 ± 5% and the “Bronchospasmolytic activity, percentage increase of Vmaxe vs control spasm” value ([1]; 5 μmol/kg i.v.) was 80 ± 4%. For the same molecule, the “Bronchospasmolytic activity, percentage increase of tidal volume (TV) vs control spasm” value ([1]; 5 μmol/kg i.v.) was 91 ± 3%, the “dose range of dose- and time-dependent inhibition of acetylcholine-induced bronchospasm” value ([1]; i.v.) was 0.03-1 μmol/kg i.v and the “persistence of maximum effect” value ([1]; i.v., observation period) was no less than 1 h. The “pA2 ± SEM, M1 receptor (ganglionic)” value (M1 receptor (ganglionic)) was 8.86 ± 0.06 and the Kb (M2 receptor (cardiac)) was 47.9 nM.
